The target of this assay is T1, human MC2R (Homo sapiens, UniProt Q01718).
T1 construct: host or cells: GeneBLAzer MC2R-CRE-bla CHO-K1 cells
T1 sequence (Q01718 whole entry): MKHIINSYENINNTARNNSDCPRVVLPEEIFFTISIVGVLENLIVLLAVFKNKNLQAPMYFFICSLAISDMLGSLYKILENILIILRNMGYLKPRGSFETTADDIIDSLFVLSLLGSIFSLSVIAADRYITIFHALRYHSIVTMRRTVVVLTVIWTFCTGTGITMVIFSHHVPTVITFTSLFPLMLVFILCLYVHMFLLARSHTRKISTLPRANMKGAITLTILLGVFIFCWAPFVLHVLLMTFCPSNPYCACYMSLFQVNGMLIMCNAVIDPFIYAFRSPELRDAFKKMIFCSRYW
T1 sequence (Q8TCY5 whole entry partner): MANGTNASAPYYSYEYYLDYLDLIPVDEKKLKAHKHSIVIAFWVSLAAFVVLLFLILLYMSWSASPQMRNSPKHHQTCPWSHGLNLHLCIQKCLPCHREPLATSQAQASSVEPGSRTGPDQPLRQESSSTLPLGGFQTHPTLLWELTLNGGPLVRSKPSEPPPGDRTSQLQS
The experiment in a line: Measurement of human MC2R inhibitory activity using intracellular cAMP concentration as an indicator. Type of assay: cell-based. Particulars: test compound at 1 µM; GeneBLAzer MC2R-CRE-bla CHO-K1 cells; ACTH (Human 1-24) final concentration 3 pM; intracellular cAMP by HTRF; read-out: MC2R inhibition rate (% of inhibition). The procedure: Experimental Example 1: Measurement of human MC2R inhibitory activity using intracellular cAMP concentration as an indicator
GeneBLAzer MC2R-CRE-bla CHO-K1 cells (Thermo Fisher Scientific) that had been cryopreserved in advance were thawed and suspended in a medium [Dulbecco's Modified Eagle Medium (Thermo Fisher Scientific) containing fetal bovine serum (10% (v/v), HyClone Laboratories), Non-Essential Amino Acids Solution (1/100 (w/w), Thermo Fisher Scientific), HEPES (25 mM, Thermo Fisher Scientific), Penicillin/Streptomycin (1/100 (w/w), Fujifilm Wako)]. After centrifuging the cell suspension, the supernatant was removed, the cells were suspended in D-PBS(-) (Fujifilm Wako), and the supernatant was removed again after centrifugation. The cells were resuspended in an assay buffer [Hank's Balanced Salt Solution (Thermo Fisher Scientific) containing HEPES pH 7.5 (10 mM, Thermo Fisher Scientific), fatty acid-free bovine serum albumin (0.01% (w/v), Sigma), IBMX (500 µM, Fujifilm Wako)] and added to a 384-well white plate (Greiner) at 1,500 cells/well. Then, the test compound prepared using the assay buffer was added, and after standing for 20 min, an assay buffer containing ACTH (Human 1-24) (Peptide Institute) was added (ACTH final concentration, 3 pM). After standing at room temperature for 30 min, the intracellular cAMP level was measured using cAMP Gs HiRange kit HTRF (PerkinElmer). The inhibition rate (%) of the compound against MC2R was calculated using the following formula. Inhibition rate (%) = […] [formula] • A: cAMP concentration calculated from wells containing 3 pM ACTH (1-24) • B: cAMP concentration calculated from wells without addition of 3 pM ACTH (1-24) • C: cAMP concentration calculated from wells containing 3 pM ACTH (1-24) and test compound at concentration determined in advance
By inhibition is commonly meant the relative decrease from the control value, in per cent. As to `CCOc1ncccc1-c1ccc(N2CCN3C(=O)N(c4ccc(Cl)cc4C(F)(F)F)CC3C2)c(C=O)n1` (centres unmarked) [Example 1, 3-[2-[4-chloro-2-(trifluoromethyl)phenyl]-3-oxo-5,6,8,8a-tetrahydro-1H-imidazo[1,5-a]pyrazin-7-yl]-6-(2-ethoxypyridin-3-yl)pyridine-2-carbaldehyde], the inhibition at 1 µM came out at 100%.

Take `CCOc1ncccc1-c1ccc(N2CCN3C(=O)N(c4ccc(Cl)cc4C(F)(F)F)CC3C2)c(C(N)=O)n1` (centres unmarked) [Example 2, 3-[2-[4-chloro-2-(trifluoromethyl)phenyl]-3-oxo-5,6,8,8a-tetrahydro-1H-imidazo[1,5-a]pyrazin-7-yl]-6-(2-ethoxypyridin-3-yl)pyridine-2-carboxamide]: the inhibition at 1 µM came out at 99%.

With `CCOc1ncccc1-c1ccc(N2CCN3C(=O)N(C4(C(F)(F)F)CCCC4)CC3C2)c(C(N)=O)n1` (centres unmarked) [Example 3, 6-(2-ethoxypyridin-3-yl)-3-[3-oxo-2-[1-(trifluoromethyl)cyclopentyl]-5,6,8,8a-tetrahydro-1H-imidazo[1,5-a]pyrazin-7-yl]pyridine-2-carboxamide], the inhibition at 1 µM worked out at 81%.

As to `CCOc1ncccc1-c1ccc(N2CCN3C(=O)N(c4ccc(Cl)cc4C(F)(F)F)CC3C2)c(C(=O)NCCN(C)C)n1` (centres unmarked) [Example 4, 3-[2-[4-chloro-2-(trifluoromethyl)phenyl]-3-oxo-5,6,8,8a-tetrahydro-1H-imidazo[1,5-a]pyrazin-7-yl]-N-[2-(dimethylamino)ethyl]-6-(2-ethoxypyridin-3-yl)pyridine-2-carboxamide], the inhibition at 1 µM came out at 100%.

Regarding `CCOc1ncccc1-c1ccc(N2CCN3C(=O)N(c4ccc(Cl)cc4C(F)(F)F)C[C@@H]3C2)c(C=O)n1` [Example 5, 3-[(8aS)-2-[4-chloro-2-(trifluoromethyl)phenyl]-3-oxo-5,6,8,8a-tetrahydro-1H-imidazo[1,5-a]pyrazin-7-yl]-6-(2-ethoxypyridin-3-yl)pyridine-2-carbaldehyde], the inhibition at 1 µM stood at 100%.

In the case of `CCOc1ncccc1-c1ccc(N2CCN3C(=O)N(c4ccc(Cl)cc4C(F)(F)F)C[C@@H]3C2)c(C(=O)NCCN(C)C)n1` [Example 6, 3-[(8aS)-2-[4-chloro-2-(trifluoromethyl)phenyl]-3-oxo-5,6,8,8a-tetrahydro-1H-imidazo[1,5-a]pyrazin-7-yl]-N-[2-(dimethylamino)ethyl]-6-(2-ethoxypyridin-3-yl)pyridine-2-carboxamide], the inhibition at 1 µM came to 100%.

With `CCOc1ncccc1-c1ccc(N2CCN3C(=O)N(c4ccc(Cl)cc4C(F)(F)F)C[C@H]3C2)c(C=O)n1` [Example 7, 3-[(8aR)-2-[4-chloro-2-(trifluoromethyl)phenyl]-3-oxo-5,6,8,8a-tetrahydro-1H-imidazo[1,5-a]pyrazin-7-yl]-6-(2-ethoxypyridin-3-yl)pyridine-2-carbaldehyde], the inhibition at 1 µM came out at 91%.

On to `CCOc1ncccc1-c1ccc(N2CCN3C(=O)N(c4ccc(Cl)cc4C(F)(F)F)C[C@H]3C2)c(C(=O)NCCN(C)C)n1` [Example 8, 3-[(8aR)-2-[4-chloro-2-(trifluoromethyl)phenyl]-3-oxo-5,6,8,8a-tetrahydro-1H-imidazo[1,5-a]pyrazin-7-yl]-N-[2-(dimethylamino)ethyl]-6-(2-ethoxypyridin-3-yl)pyridine-2-carboxamide], for which the inhibition at 1 µM stood at 90%.

Turning to `CCOc1ncccc1-c1ccc(N2CCN3C(=O)N(c4ccc(Cl)cc4C(F)(F)F)CC3(C)C2)c(C=O)n1` (centres unmarked) [Example 9, 3-[2-[4-chloro-2-(trifluoromethyl)phenyl]-8a-methyl-3-oxo-1,5,6,8-tetrahydroimidazo[1,5-a]pyrazin-7-yl]-6-(2-ethoxypyridin-3-yl)pyridine-2-carbaldehyde], the inhibition at 1 µM stood at 99%.

`CCOc1ncccc1-c1ccc(N2C[C@H]3CN(c4ccc(Cl)cc4C(F)(F)F)C(=O)N3C[C@H]2CC)c(C=O)n1` [Example 10, 3-[(6R,8aS)-2-[4-chloro-2-(trifluoromethyl)phenyl]-6-ethyl-3-oxo-5,6,8,8a-tetrahydro-1H-imidazo[1,5-a]pyrazin-7-yl]-6-(2-ethoxypyridin-3-yl)pyridine-2-carbaldehyde]: the inhibition at 1 µM was found to be 100%.

On to `CCOc1ncccc1-c1ccc(N2CCN3C(=O)N(c4ccc(Cl)cc4C(F)(F)F)C[C@@H]3C2)c(C(=O)NCC2CCOCC2)n1` [Example 11, 3-[(8aS)-2-[4-chloro-2-(trifluoromethyl)phenyl]-3-oxo-5,6,8,8a-tetrahydro-1H-imidazo[1,5-a]pyrazin-7-yl]-6-(2-ethoxypyridin-3-yl)-N-(oxan-4-ylmethyl)pyridine-2-carboxamide], for which the inhibition at 1 µM is 97%.

`CCOc1ncccc1-c1ccc(N2CCN3C(=O)N(c4ccc(Cl)cc4C(F)(F)F)C[C@@H]3C2)c(C(=O)NCCOC)n1` [Example 12, 3-[(8aS)-2-[4-chloro-2-(trifluoromethyl)phenyl]-3-oxo-5,6,8,8a-tetrahydro-1H-imidazo[1,5-a]pyrazin-7-yl]-6-(2-ethoxypyridin-3-yl)-N-(2-methoxyethyl)pyridine-2-carboxamide]: the inhibition at 1 µM worked out at 100%.

With `CCOc1ncccc1-c1ccc(N2CCN3C(=O)N(c4ccc(Cl)cc4C(F)(F)F)C[C@@H]3C2)c(C(=O)NCCC2CCOCC2)n1` [Example 13, 3-[(8aS)-2-[4-chloro-2-(trifluoromethyl)phenyl]-3-oxo-5,6,8,8a-tetrahydro-1H-imidazo[1,5-a]pyrazin-7-yl]-6-(2-ethoxypyridin-3-yl)-N-[2-(oxan-4-yl)ethyl]pyridine-2-carboxamide], the inhibition at 1 µM was 99%.

Consider `CCOc1ncccc1-c1ccc(N2CCN3C(=O)N(c4ccc(Cl)cc4C(F)(F)F)C[C@@H]3C2)c(C(=O)NCCCc2ccccn2)n1` [Example 14, 3-[(8aS)-2-[4-chloro-2-(trifluoromethyl)phenyl]-3-oxo-5,6,8,8a-tetrahydro-1H-imidazo[1,5-a]pyrazin-7-yl]-6-(2-ethoxypyridin-3-yl)-N-(3-pyridin-2-ylpropyl)pyridine-2-carboxamide], for which the inhibition at 1 µM is 100%.

As for `CCOc1ncccc1-c1ccc(N2CCN3C(=O)N(c4ccc(Cl)cc4C(F)(F)F)C[C@@H]3C2)c(C(=O)NCC2(O)COC2)n1` [Example 15, 3-[(8aS)-2-[4-chloro-2-(trifluoromethyl)phenyl]-3-oxo-5,6,8,8a-tetrahydro-1H-imidazo[1,5-a]pyrazin-7-yl]-6-(2-ethoxypyridin-3-yl)-N-[(3-hydroxyoxetan-3-yl)methyl]pyridine-2-carboxamide], the inhibition at 1 µM worked out at 100%.

For `CCOc1ncccc1-c1ccc(N2CCN3C(=O)N(c4ccc(Cl)cc4C(F)(F)F)C[C@@H]3C2)c(C(=O)NCC2(O)CC2)n1` [Example 16, 3-[(8aS)-2-[4-chloro-2-(trifluoromethyl)phenyl]-3-oxo-5,6,8,8a-tetrahydro-1H-imidazo[1,5-a]pyrazin-7-yl]-6-(2-ethoxypyridin-3-yl)-N-[(1-hydroxycyclopropyl)methyl]pyridine-2-carboxamide], the inhibition at 1 µM turned out to be 100%.

As to `CCOc1ncccc1-c1ccc(N2CCN3C(=O)N(c4ccc(Cl)cc4C(F)(F)F)C[C@@H]3C2)c(C(=O)NC2CCN(C(=O)OC(C)(C)C)C2)n1` (stereo partly drawn) [Example 17, tert-butyl 3-[[3-[(8aS)-2-[4-chloro-2-(trifluoromethyl)phenyl]-3-oxo-5,6,8,8a-tetrahydro-1H-imidazo[1,5-a]pyrazin-7-yl]-6-(2-ethoxypyridin-3-yl)pyridine-2-carbonyl]amino]pyrrolidine-1-carboxylate], the inhibition at 1 µM came to 91%.

In the case of `CCOc1ncccc1-c1ccc(N2CCN3C(=O)N(c4ccc(Cl)cc4C(F)(F)F)C[C@@H]3C2)c(C(=O)NCCS(C)(=O)=O)n1` [Example 18, 3-[(8aS)-2-[4-chloro-2-(trifluoromethyl)phenyl]-3-oxo-5,6,8,8a-tetrahydro-1H-imidazo[1,5-a]pyrazin-7-yl]-6-(2-ethoxypyridin-3-yl)-N-(2-methylsulfonylethyl)pyridine-2-carboxamide], the inhibition at 1 µM was 100%.

For the molecule `CCOc1ncccc1-c1ccc(N2CCN3C(=O)N(c4ccc(Cl)cc4C(F)(F)F)C[C@@H]3C2)c(C(=O)NCCc2ccccn2)n1` [Example 19, 3-[(8aS)-2-[4-chloro-2-(trifluoromethyl)phenyl]-3-oxo-5,6,8,8a-tetrahydro-1H-imidazo[1,5-a]pyrazin-7-yl]-6-(2-ethoxypyridin-3-yl)-N-(2-pyridin-2-ylethyl)pyridine-2-carboxamide], the inhibition at 1 µM is 100%.

On to `CCOc1ncccc1-c1ccc(N2CCN3C(=O)N(c4ccc(Cl)cc4C(F)(F)F)C[C@@H]3C2)c(C(=O)NC2CCOC2)n1` (stereo partly drawn) [Example 20, 3-[(8aS)-2-[4-chloro-2-(trifluoromethyl)phenyl]-3-oxo-5,6,8,8a-tetrahydro-1H-imidazo[1,5-a]pyrazin-7-yl]-6-(2-ethoxypyridin-3-yl)-N-(oxolan-3-yl)pyridine-2-carboxamide], for which the inhibition at 1 µM was determined as 99%.

Values taken from EP4714953A1, “MELANOCORTIN 2-TYPE RECEPTOR ANTAGONIST” (Scohia Pharma, Inc., priority 2023, dated 2024).
